The values below come from US9029080B2, “Screening assay for insecticides” (priority 2008, dated 2015).

Like-named read-outs stand apart in the source and are kept apart here.

The target of test [1] is T1, ShaI_delN (Drosophila melanogaster, UniProt P17971).
T1 construct: expressed in transfected cells; host or cells: CHO
The experiment in a line: ShaI_delN clonal lines, FLIPR blue membrane potential dye, KCl depolarization. In kind it is cell-based. The settings on record: both the ShaI_delN clonal lines and the control pcDNA3 cell line, FLIPR. The method, then: ShaI_DelN C10 and C15 were tested for function on the FLIPR using the Molecular Devices blue membrane potential dye. The cells were seeded at 60K cells/well in 96-well Costar plates in complete media and assayed for function at 24 hrs. Depolarization with 15-60 mM KCl caused a 2-2.8 fold higher activity in the clonal line than the pcDNA control cell line (FIG. 5). Clone 10 had slightly higher activity than clone 15.
FIG. 5: ShaI_DelN clones tested on FLIPR with KCl depolarization. We also tested some known K-channel blockers on channel activity on the FLIPR (FIG. 6). […] The ShaI_delN clonal cell lines lost their GFP expression and assay window with cell passage. At passage 12, only 10-15% of the cell population was GFP positive.
The effects of barium (Ba2+) on ShaI_delN function were tested. Barium is known to inhibit some open rectifier and inward rectifier K-channel activities. Cells were dye loaded in the presence of BaCl2 for 1 hr at RT and assayed on the FLIPR using KCl depolarization for channel activation.

Test [2] deals with T2, ShaI/KChIP (Drosophila melanogaster, UniProt P17971).
T2 construct: expressed in transfected cells; subclone 18-13-20
T2 sequence (P17971 with tags, fused parts or gaps isoform P17971-1): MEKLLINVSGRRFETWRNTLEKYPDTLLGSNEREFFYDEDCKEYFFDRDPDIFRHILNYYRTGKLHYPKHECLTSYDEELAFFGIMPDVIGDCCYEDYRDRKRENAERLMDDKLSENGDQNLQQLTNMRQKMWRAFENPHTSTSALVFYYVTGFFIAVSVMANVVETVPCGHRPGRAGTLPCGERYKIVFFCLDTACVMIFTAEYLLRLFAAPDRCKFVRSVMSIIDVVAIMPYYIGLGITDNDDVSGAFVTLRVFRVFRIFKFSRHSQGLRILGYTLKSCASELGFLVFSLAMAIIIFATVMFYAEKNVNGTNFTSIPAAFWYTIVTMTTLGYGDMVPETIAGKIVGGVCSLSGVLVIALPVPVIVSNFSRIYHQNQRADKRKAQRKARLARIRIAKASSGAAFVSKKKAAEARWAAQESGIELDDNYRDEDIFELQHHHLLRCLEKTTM
The test can be described thus: ShaI/KChIP FLIPR membrane potential assay, KCl depolarization. In kind it is cell-based. As for the experimental part: This assay uses two fluid additions to permit the detection of activators and antagonists in a single experiment (FIG. 17). In screening, test compounds are added in the first addition and allowed to incubate for three minutes. An activating dose of KCl is then introduced in the second addition and the fluorescence read for an additional three minutes. Controls are run for both additions.
Cells were dispensed in a 50 μl volume containing 7,500 cells into 384-well TC clear/black assay plates (Greiner 781091) using a Multidrop 384 dispenser, incubated at ambient temperature for one hour (to reduce edge effects), and incubated overnight at 37° C./5% CO2. The cells were assayed 18-24 hours after seeding, at which point they were just approaching confluency in the wells. Culture medium was removed by flicking and tapping it out of the plate, and cells were loaded with 20 ul/well of 1× blue membrane potential dye in assay buffer for 30 minutes at 25° C. After 30 minutes the assay plate was placed into the FLIPR and run using a two-addition protocol. The first addition (5×, 5 ul) contained 2.5% DMSO in assay buffer. The pipetting height was set at 15 and the speed 20. The plate was read for three minutes after this addition. The second addition (2×, 25 ul) was either assay buffer or 120 mM isometrically-substituted KCl (i.e., KCl substituted for NaCl on a 1:1 molar basis). The height was 20 and the speed 25. Aspirate speeds were set at the lowest values and no hold or expel volumes applied. The plate was read for an additional three minutes after the second addition. The exported statistics were typically configured as stat1=average of 190-200 (the interval just before the first addition) and stat2=maximum of 260-maximum allowed. Subtract bias was set at 1 and negative control correction was OFF. Z′ statistics (an index of “screenability”, Z′>0.5=single-pass screen) were calculated using the following formula: Z′=1−((3σmax+3σmin)/(Iμmax−μminI)).
FIG. 32: BIOMOL compounds—primary screening data. ScreenWorks screenshots showing primary FLIPR data for BIOMOL compound screening. ShaI/KChIP 20 cells were plated at 7500 cells/well in 384-well assay plates and screened the following day. Culture medium was removed by flicking the plates and the cells were loaded with 20 ul 1× membrane potential dye per well for 0.5 hours at 25° C. A two-addition protocol was used. The first addition was 5 ul 5× control or compound in 2.5% DMSO in assay buffer (0.5% [final]) read for 180 sec, and the second addition was 25 ul 2× control or 120 mM isometrically-substituted KCl in assay buffer (0-60 mM [final]) read for an additional 180 sec. Statistics were exported using the average of reads 180-200 and the maximum of reads 260-maximum allowed. Subtract bias was set at 1 and negative control correction was OFF. Control columns ½ and 23/24 are described starting on pg. 53 of this document. Inset: Screenshot of group averages for the control and compound wells highlighted in the primary data screen.
The 3222 unique members of the BioFocus SoftFocus Ion Channel Libraries #1-4 (#SF101-04) were screened in 384-well four-point mode against ShaI/KChIP at 10 uM in a combined activator and antagonist screen. The same FLIPR protocol was used as for the BIOMOL screening and was carried out over four non-consecutive days. The following compound preparation protocol was used to prepare screening plates: Briefly, ShaI-KChIP cells were seeded in 384-well plates at 7500 cells/well in 50 ul and incubated overnight at 37° C./5% CO2. The next day, culture medium was removed, 20 ul of 1×FMP dye was added, and the cell plate was incubated at 27° C. for 30 minutes. After incubation, the cell plate was placed into the Tetra and a two-addition protocol was used. The 1st addition was 5 μl of 5× compound (50 μM) with a three minute read. […] The 2nd addition was 25 ul of 2× activation buffer (120 mM isometric KCl substitution for NaCl) and read for an additional two minutes. […]

For test [3], the target named is T3, Shaker channel plus H-kvβ A subunit (Drosophila melanogaster, UniProt P08510, INS512V).
T3 construct: expressed in transfected cells; host or cells: CHO-K1
In kind it is cell-based. The method, then:
In order to detect the membrane depolarization elicited by KCl injection, the Membrane Potential sensitive dye was used both for FLIPR384 and […] experiments. Cells were analyzed in 384 clear-bottom black MPTs (MATRIX cat. #4324) by seeding 5000, 7500, 10000 cells/well 24 hrs before experiment. Plates were incubated with 40 μl/w of 0.625× membrane potential dye for 45-60 minutes at 37° C. or room temperature and measured at FLIPR instrument by injecting 10 μl/w of 5× antagonist (in the presence of 0.5% DMSO, as indicated) followed by 3-5 minutes fluorescence reading; then a second injection of 25 μl/w of 3× KCl in Standard Tyrode solution) was performed and fluorescence measured for further 3-4 minutes. In experiments with a single injection (agonist), plates were incubated with 20 μl/w of 1× dye and injected with 20 μl/w of 2× KCl in Standard Tyrode solution.
Kinetic data obtained from different well replicates were analyzed with FLIPR, Excel and Spotfire software, by calculating the Integral or Maximum-Minimum RFU values after the injection; the obtained means and standard deviations were utilized to create sigmoidal dose-response fits by GraphPad PRISM® or Spotfire software and to calculate EC50-IC50 values and Z′ factors.
FIG. 42. […]

Test [4] has as its target T4, octopamine receptor (OctR, CG6919 dmOa2) (Drosophila melanogaster, UniProt Q9VCZ3).
T4 construct: expressed in transfected cells; host or cells: CHO stably expressing G-alpha-16
The test can be described thus: OctR clone 55 FLIPR Fluo-4 calcium assay. The settings on record: clone 55, same as published cAMP data. The test is classed as cell-based. The method, then: FIG. 62. Cells were plated at 10K/well in 384 well plates and allowed to incubate overnight at […]. The cells were assayed 18-24 hours after seeding. Media was removed and cells were dye loaded for 60 minutes with 2 μM Fluo-4. After 1 hour, dye was removed and 20 μl of buffer added to the plate and placed into FLIPR. The 1st addition was antagonist dose response curves and the 2nd addition was agonist dose response curves. Antagonists were challenged with 100 nM Octopamine. In addition, these compounds were tested in the parental cell line CHO-Galpha16.
Cells were plated at 10,000 cells/well in 50 μl into 384-well black TC plates and allowed to incubate overnight at 37° C./5% CO2. The cells were assayed 18-24 hours after seeding. Culture medium was removed by flicking and cells were dye loaded for 60 minutes with 20 μl of 2 μM Fluo-4 in assay buffer plus probenecid at 25° C. After one hour dye was removed by flicking and 20 μL of assay buffer was added, wait 5 min prior to placing into the FLIPR and run using a two-addition protocol. The first addition (20 ul, 2×) was 0.5% DMSO final in assay buffer. The second addition (20 ul, 3×) was either assay buffer or 100 nM octopamine final.

In test [5] the target is SK2 channel (Homo sapiens, UniProt Q9H2S1). The settings on record: patch clamp; cited from earlier work. Background: Patch clamp records ionic current or voltage across a cell membrane.

Take `C=C[C@H]1CN2CC[C@@H]1CC2[C@@H](O)c1ccnc2ccc(OC)cc12` (stereo in doubt) [quinidine, (2-ethenyl-4-azabicyclo[2.2.2]oct-5-yl)-(6-methoxyquinolin-4-yl)-methanol]: in test [1], the “inhibition of KCl depolarization” value is listed as “dose dependent inhibition”. Take `COC(=O)C1=C(C)NC(C)=C([N+](=O)[O-])C1c1ccccc1C(F)(F)F` (stereo not shown) [Bay K8644]: the “inhibition of KCl depolarization” value in test [1] was “dose dependent inhibition”. Turning to `O=C(NCC1CCCCN1)c1cc(OCC(F)(F)F)ccc1OCC(F)(F)F` (stereo not shown) [Flecainide], the “inhibition of KCl depolarization” value in test [1] is “did not show any inhibition”. For orientation: EC50 means the concentration at which the effect is half-maximal. Regarding `[Cl-].[K+]` [KCl, reference compound], the EC50 amounted to 30 mM in test [2] (ShaI/KChIP 18-13 cells, isometrically-substituted KCl, fixed top response, read-out: EC50) and 36 mM in test [2] (ShaI/KChIP 20 cells, three days, standard deviation 5 mM, read-out: EC50 mean). In addition, in test [3] (in Activation buffer, high-throughput screening parameter), the “Activator concentration (~EC80)” value was roughly 50 mM. Consider `CC[N+](CC)(CC)CC` [TEA, Tetraethylammonium], for which the “effect on KCl stimulation” value in test [3] was “blocking effect is visible”. For `Cc1ccc(/N=C/N(C)/C=N/c2ccc(C)cc2C)c(C)c1` [amitraz], the “rank order of potency (agonists)” value in test [4] is “naphazoline>octopamine>amitraz>clonidine>tolazoline”. Consider `CN(C)CCC=C1c2ccccc2CCc2ccccc21` [amitriptyline], for which the “block of SK2 channel currents” value in test [5] is listed as “micro-molar affinity”.

Turning to `NC(=O)N1c2ccccc2C=Cc2ccccc21` [carbamazepine], in test [5], the “block of SK2 channel currents” value is on record as “micro-molar affinity”. On to `Clc1cccc(Cl)c1N=C1NCCN1` [clonidine], for which the “rank order of potency (agonists)” value in test [4] was “naphazoline>octopamine>amitraz>clonidine>tolazoline”. The same measure, in the same setting: with `c1ccc2c(CC3=NCCN3)cccc2c1` [naphazoline] the entry was “naphazoline>octopamine>amitraz>clonidine>tolazoline”. For `COC(=O)C1=C(C)NC(C)=C(C(=O)OCCN(C)Cc2ccccc2)C1c1cccc([N+](=O)[O-])c1` (stereo not shown) [nicardipine], the “inhibition of KCl depolarization” value in test [1] was “dose dependent inhibition”.

Regarding `O=C(O)c1cccnc1Nc1cccc(C(F)(F)F)c1` [niflumic acid], the “inhibition of KCl depolarization” value in test [1] is “dose dependent inhibition”. Take `Nc1c2c(nc3ccccc13)CCCC2` [tacrine]: the “block of SK2 channel currents” value in test [5] is on record as “micro-molar affinity”. Consider `c1ccc(CC2=NCCN2)cc1` [tolazoline], for which the “rank order of potency (agonists)” value in test [4] is on record as “naphazoline>octopamine>amitraz>clonidine>tolazoline”.
